Data published in US20120053053A1, “PYRIMIDINE DERIVATIVES AND THEIR USE AS HERBICIDES” (SYNGENTA CROP PROTECTION, LLC, priority 2009, published 2012).
Blank lines part the entries; values can stand above or below the compound they belong to.

What was measured:
[1] = tested on: Alopecurus myosuroides (ALOMY); test: Pre-emergence biological efficacy (percentage damage); assay type: in vivo; settings: evaluated after 13 days, 100=total damage, 0=no damage
Outline: (§1)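 Percentage damage (100 = total, 0 = none) was assessed 13 days after treatment. Compound was sprayed at a final dose of 250 or 1000 g/ha onto soil sown one day earlier, with plants kept under controlled glasshouse conditions (24/16 °C, 14 h light, 65% humidity).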

[2] = tested on: Amaranthus retoflexus (AMARE); test: as above; assay type: in vivo; settings: evaluated after 13 days, 100=total damage, 0=no damage
Outline: as §1

[3] = tested on: Echinochloa crus-galli (ECHCG); test: as above; assay type: in vivo; settings: evaluated after 13 days, 100=total damage, 0=no damage
Outline: as §1

[4] = tested on: Ipomea hederaceae (IPOHE); test: as above; assay type: in vivo; settings: evaluated after 13 days, 100=total damage, 0=no damage
Outline: as §1

[5] = tested on: Setaria faberi (SETFA); test: as above; assay type: in vivo; settings: evaluated after 13 days, 100=total damage, 0=no damage
Outline: as §1

[6] = tested on: Solanum nigrum (SOLNI); test: as above; assay type: in vivo; settings: evaluated after 13 days, 100=total damage, 0=no damage
Outline: as §1

[7] = tested on: Alopecurus myosuroides (ALOMY); test: Post-emergence biological efficacy (percentage damage); assay type: in vivo; settings: evaluated after 13 days, 100=total damage, 0=no damage
Outline: (§2)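 Percentage damage (0 no damage to 100 total) was assessed 13 days after spraying plants raised for 8 days in pots. Test compound was applied as an aqueous acetone/water (50:50) spray containing 0.5% Tween 20 to give 250 or 1000 g/ha.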

[8] = tested on: Amaranthus retoflexus (AMARE); test: as above; assay type: in vivo; settings: evaluated after 13 days, 100=total damage, 0=no damage
Outline: as §2

[9] = tested on: Echinochloa crus-galli (ECHCG); test: as above; assay type: in vivo; settings: evaluated after 13 days, 100=total damage, 0=no damage
Outline: as §2

[10] = tested on: Ipomea hederaceae (IPOHE); test: as above; assay type: in vivo; settings: evaluated after 13 days, 100=total damage, 0=no damage
Outline: as §2

[11] = tested on: Setaria faberi (SETFA); test: as above; assay type: in vivo; settings: evaluated after 13 days, 100=total damage, 0=no damage
Outline: as §2

[12] = tested on: Solanum nigrum (SOLNI); test: as above; assay type: in vivo; settings: evaluated after 13 days, 100=total damage, 0=no damage
Outline: as §2

[13] = Alopecurus myosuroides, 312 h, dose 1,000 g/ha
[14] = Amaranthus retroflexus, 312 h, dose 1,000 g/ha
[15] = Echinochloa crus-galli, 312 h, dose 1,000 g/ha
[16] = Ipomoea hederacea, 312 h, dose 1,000 g/ha
[17] = Setaria faberi, 312 h, dose 1,000 g/ha
[18] = Solanum nigrum, 312 h, dose 1,000 g/ha
[19] = Alopecurus myosuroides, 312 h, dose 250 g/ha
[20] = Amaranthus retroflexus, 312 h, dose 250 g/ha
[21] = Echinochloa crus-galli, 312 h, dose 250 g/ha
[22] = Ipomoea hederacea, 312 h, dose 250 g/ha
[23] = Setaria faberi, 312 h, dose 250 g/ha
[24] = Solanum nigrum, 312 h, dose 250 g/ha

melting point: 74 to 75 °C
SMILES: C=Cc1c(C(=O)OC)nc(C2CC2)nc1[S+](C)[O-] (stereo not shown) [Compound 2-401, 2-cyclopropyl-5-ethenyl-6-methoxycarbonyl-4-methylsulphinyl-pyrimidine]
pest or weed control at 1000 g/ha [1, 13]: 0% | pest or weed control at 1000 g/ha [2, 14]: 70% | pest or weed control at 1000 g/ha [3, 15]: 0% | pest or weed control at 1000 g/ha [4, 16]: 70% | pest or weed control at 1000 g/ha [5, 17]: 0% | pest or weed control at 1000 g/ha [6, 18]: 10% | pest or weed control at 1000 g/ha [7, 13]: 0% | pest or weed control at 1000 g/ha [8, 14]: 70% | pest or weed control at 1000 g/ha [9, 15]: 0% | pest or weed control at 1000 g/ha [10, 16]: 70% | pest or weed control at 1000 g/ha [11, 17]: 0% | pest or weed control at 1000 g/ha [12, 18]: 80%

SMILES: C=C(C)c1c(N)nc(C2CC2)nc1C(=O)OC [Compound 2-64, 4-Amino-2-cyclopropyl-6-methoxycarbonyl-5-(prop-1-en-2-yl)-pyrimidine]
pest or weed control at 1000 g/ha [1, 13]: 20% | pest or weed control at 1000 g/ha [2, 14]: 100% | pest or weed control at 1000 g/ha [3, 15]: 0% | pest or weed control at 1000 g/ha [4, 16]: 100% | pest or weed control at 1000 g/ha [5, 17]: 20% | pest or weed control at 1000 g/ha [6, 18]: 80% | pest or weed control at 1000 g/ha [7, 13]: 10% | pest or weed control at 1000 g/ha [8, 14]: 60% | pest or weed control at 1000 g/ha [9, 15]: 40% | pest or weed control at 1000 g/ha [10, 16]: 70% | pest or weed control at 1000 g/ha [11, 17]: 30% | pest or weed control at 1000 g/ha [12, 18]: 80%

SMILES: C/C=C/c1c(N)nc(-c2ccc(C(F)(F)F)cc2)nc1C(=O)OC [Compound 31-62, 4-amino-6-methoxycarbonyl-5-prop-1-enyl-2-(4-tri-fluoromethylphenyl)-pyrimidine]
pest or weed control at 1000 g/ha [1, 13]: 0% | pest or weed control at 1000 g/ha [2, 14]: 20% | pest or weed control at 1000 g/ha [3, 15]: 0% | pest or weed control at 1000 g/ha [4, 16]: 0% | pest or weed control at 1000 g/ha [5, 17]: 0% | pest or weed control at 1000 g/ha [6, 18]: 0% | pest or weed control at 1000 g/ha [7, 13]: 0% | pest or weed control at 1000 g/ha [8, 14]: 30% | pest or weed control at 1000 g/ha [9, 15]: 0% | pest or weed control at 1000 g/ha [10, 16]: 50% | pest or weed control at 1000 g/ha [11, 17]: 10% | pest or weed control at 1000 g/ha [12, 18]: 50%

SMILES: C=Cc1c(N)nc(-c2ccc(Cl)c(N(C)C)c2F)nc1C(=O)OCCCCCCCC [Compound 33-392]
Percentage damage ALOMY, pre-emergence ([1]; dose 1,000 g/ha): 70% | Percentage damage AMARE, pre-emergence ([2]; dose 1,000 g/ha): 100% | Percentage damage ECHCG, pre-emergence ([3]; dose 1,000 g/ha): 100% | Percentage damage IPOHE, pre-emergence ([4]; dose 1,000 g/ha): 0% | Percentage damage SETFA, pre-emergence ([5]; dose 1,000 g/ha): 90% | Percentage damage SOLNI, pre-emergence ([6]; dose 1,000 g/ha): 80% | Percentage damage ALOMY, post-emergence ([7]; dose 1,000 g/ha): 70% | Percentage damage AMARE, post-emergence ([8]; dose 1,000 g/ha): 100% | Percentage damage ECHCG, post-emergence ([9]; dose 1,000 g/ha): 80% | Percentage damage IPOHE, post-emergence ([10]; dose 1,000 g/ha): 80% | Percentage damage SETFA, post-emergence ([11]; dose 1,000 g/ha): 60% | Percentage damage SOLNI, post-emergence ([12]; dose 1,000 g/ha): 90%

SMILES: C=C(C)c1c(N)nc(-c2ccc(C(F)(F)F)cc2)nc1C(=O)OC [Compound 31-64, 4-Amino-6-methoxycarbonyl-5-(prop-1-en-2-yl)-2-(4-trifluoromethyl-phenyl)-pyrimidine]
pest or weed control at 1000 g/ha [1, 13]: 0% | pest or weed control at 1000 g/ha [2, 14]: 0% | pest or weed control at 1000 g/ha [3, 15]: 0% | pest or weed control at 1000 g/ha [4, 16]: 0% | pest or weed control at 1000 g/ha [5, 17]: 0% | pest or weed control at 1000 g/ha [6, 18]: 0% | pest or weed control at 1000 g/ha [7, 13]: 0% | pest or weed control at 1000 g/ha [8, 14]: 40% | pest or weed control at 1000 g/ha [9, 15]: 0% | pest or weed control at 1000 g/ha [10, 16]: 60% | pest or weed control at 1000 g/ha [11, 17]: 20% | pest or weed control at 1000 g/ha [12, 18]: 60%

SMILES: CCC/C=C/c1c(N)nc(C2CC2)nc1C(=O)OC [Compound 2-65, 4-Amino-2-cyclopropyl-6-methoxycarbonyl-5-(pent-1-enyl)-pyrimidine]
pest or weed control at 250 g/ha [1, 19]: 0% | pest or weed control at 250 g/ha [2, 20]: 0% | pest or weed control at 250 g/ha [3, 21]: 0% | pest or weed control at 250 g/ha [4, 22]: 0% | pest or weed control at 250 g/ha [5, 23]: 0% | pest or weed control at 250 g/ha [6, 24]: 0% | pest or weed control at 250 g/ha [7, 19]: 0% | pest or weed control at 250 g/ha [8, 20]: 20% | pest or weed control at 250 g/ha [9, 21]: 0% | pest or weed control at 250 g/ha [10, 22]: 40% | pest or weed control at 250 g/ha [11, 23]: 0% | pest or weed control at 250 g/ha [12, 24]: 40%
